Source: US6878689B2, “Preventives or remedies for heart failure” (Kaken Pharmaceutical Co., Ltd., priority 2000, dated 2005)
Where a SMILES comes first, the peptide text is derived from it. [ ]: non-standard residue; d: D form. d2Nal = N[C@H](Cc1ccc2ccccc2c1)C(=O)O

System: dogs with occluded anterior descending coronary artery
Assay: Effect of intravenously administered pralmorelin on cardiac function of dog with anterior descending coronary artery occlusion
Assay type: in vivo
Conditions: 100 μg/kg i.v.
Procedure: [Test Example 3] Effect of Intravenously Administered Pralmorelin on the Cardiac Function of Dog with a Model of Anterior Descending Coronary Artery Occlusion
Using a dog model of acute contractile dysfunction caused by occlusion of the anterior descending coronary artery, the inventors studied the cardiotonic action of pralmorelin.
The action of pralmorelin on the cardiac dysfunction deteriorated by occlusion of the coronary artery was evaluated by various hemodynamic parameters, cardiac output (CO), stroke volume (SV), maximal positive dP/dt of left ventricular pressure (+dP/dtmax), ejection fraction (EF), mean blood pressure (MBP), heart rate (HR), total peripheral resistance (TPR) and double product (RPP) as an index of myocardial oxygen consumption. • 1. Test Materials and Method • 1) Test Substance and Reagents • (1) Control
Pralmorelin dihydrochloride (hereunder referred to as KP-102) (prepared by the method described in WO 9304081) was dissolved in distilled water to prepare a 0.5 mg/mL solution. • (3) Reagents
In the experiment, adult beagles of either sex (weighing 9-11 kg) purchased from Nihon Nosan Kogyo K.K. (Kanagawa, Japan) were used. After arrival, the animals were allowed to eat a solid meal (CD-5, CLEA Japan, Inc. or Labo D Stock, Nark Corp.) and drink water in a room at a temperature of 20±2° C. and at a humidity of 55±15% under illumination for 12 hours a day (from 7:00 to 19:00); the animals were kept under these conditions for at least one week before use. • 3) Method of Measurement
Anesthesia was introduced by intravenous administration of pentobarbital (30 mg/kg) and in order to maintain anesthesia, pentobarbital (5-6 mg/kg/hr) was injected continuously by means of an infusion pump (FP-W-100, Toyo Sangyo) through a polyethylene cannula retained in the right cephalic vein. The endotracheal cannula was inserted and the chest was opened at the left fourth intercostal space under artificial respiration in a tidal volume of 20 mL/kg at a rate of 18 breaths/min with an artificial respirator (SN-480-3 of Shinano Seisakusho). The left anterior descending coronary artery was carefully detached from the site of origin over a length of 1-2 cm and an occluding thread was passed through.
The chest was opened at the left fifth intercostal space and a 5-segment conductance catheter (CCS-108-DA, Unique Medical) was inserted from the cardiac apex so that all electrodes would be placed in the left ventricle. A catheter equipped with a 5 Fr microtip pressure transducer (pressure transducer catheter, Model MPC-500, MILLAR) was inserted into the left ventricle through the left carotid artery. The conductance catheter and the pressure transducer catheter inserted into the left ventricle were connected to a built-in amplifier in a ventricular volume-measuring instrument (Integral 3; VPR-1002, Unique Medical) and the changes in the left ventricular pressure (LVP) and the volume of the left ventricle were measured simultaneously. To determine the mean blood pressure (MBP), blood pressure was measured via a blood pressure amplifier (AP641G, Nihon Kohden) from the 5 Fr pressure transducer catheter inserted into the left femoral artery. Heart rate (HR) was measured with a cardiotachometer (AT-601G, Nihon Kohden) from the pulse waves of blood pressure.
The chest was opened again at the fourth intercostal space and in order to measure the cardiac output (CO(EMF)) (CO as determined by an electromagnetic blood flowmeter based method), a probe connected to an electromagnetic blood flowmeter (MFV-2100, Nihon Kohden) was fitted at the site of origin of the aorta. A spiral electrode was put in the ischemic region that occurred due to the occlusion of coronary artery and a surface electrocardiogram was recorded. A Doppler probe was fitted on the left anterior descending coronary artery and the blood flow was determined with a Doppler blood flowmeter (PD-20, Crystal Biotech). […]

## C[C@H](NC(=O)[C@@H](Cc1ccc2ccccc2c1)NC(=O)[C@@H](C)N)C(=O)N[C@@H](Cc1c[nH]c2ccccc12)C(=O)N[C@H](Cc1ccccc1)C(=O)N[C@@H](CCCCN)C(N)=O [KP-102, D-alanyl-3-(naphthalen-2-yl)-D-alanyl-L-alanyl-L-tryptophyl-D-phenylalanyl-L-lysinamide] (H-[dA][d2Nal]AW[dF]K-NH2)
  change in LVEDP: Neither of the control and KP-102 groups showed changes in LVPsys and LVEDP
  change in LVPsys: Neither of the control and KP-102 groups showed changes in LVPsys and LVEDP
  change in double product (RPP), index of myocardial oxygen consumption: Neither group experienced a change in RPP
  change in heart rate (HR): Neither of MBP and HR changed
  change in mean blood pressure (MBP): Neither of MBP and HR changed
  change in −dP/dtmax in comparison with control group: no significant change
5 minutes after the administration, n=5, p<0.05 vs control
  increase in stroke volume (SV) from baseline before administration: 5%
10 minutes after the administration, n=5, p<0.05 vs control
  maximum increase in cardiac output (CO) from baseline before administration: 7%
10 minutes after the administration, p<0.05 vs control for first 20 minutes
  increase in +dP/dtmax from baseline before administration: 7%
In 10 minutes, significant vs control
  maximal increase in ejection fraction (EF): 10%
p<0.05 vs control
  change in total peripheral resistance (TPR): dropped following the administration
